# Measurements reported in patent US20210045385A1, “PYRIDAZINONE-SUBSTITUTED KETOXIMES AS HERBICIDES” (FMC Corporation, priority 2018, published 2021).
# What was measured:
# Format in all cases: in vivo
# [1] = test system: Italian ryegrass (Lolium mutiflorum); assay: Test C preemergence, visual plant response rating
# Summary of the method: (§1)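 Seeds sown in a loam–sand blend got a directed preemergence soil spray; postemergence plants (2–10 cm, one- to two-leaf stage) were sprayed with compound in a non-phytotoxic solvent plus surfactant. Injury was scored visually against untreated controls after about 10 d in a greenhouse on a 0–100 scale (100 = complete control).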
# [2] = test system: barnyardgrass (Echinochloa crus-galli); assay: Test C preemergence, visual plant response rating
# Summary of the method: as §1
# [3] = test system: foxtail, giant (giant foxtail, Setaria faberi); assay: Test C preemergence, visual plant response rating
# Summary of the method: as §1
# kochia (Bassia scoparia) [4] = assay: Test C preemergence, visual plant response rating
# Summary of the method: as §1
# [5] = test system: pigweed (Amaranthus retroflexus); assay: Test C preemergence, visual plant response rating
# Summary of the method: as §1
# [6] = test system: Italian ryegrass (Lolium mutiflorum); assay: Test C postemergence, visual plant response rating
# Text: (§2) Seeds of plant species selected from barnyardgrass (Echinochloa crus-galli), kochia (Bassia scoparia), ragweed (common ragweed, Ambrosia artemisiifolia), Italian ryegrass (Lolium mutiflorum), foxtail, giant (giant foxtail, Setaria faberi), foxtail, green (green foxtail, Setaria viridis), and pigweed (Amaranthus retroflexus) were planted into a blend of loam soil and sand and treated preemergence with a directed soil spray using test chemicals formulated in anon-phytotoxic solvent mixture which included a surfactant.
# (§3) At the same time, plants selected from these weed species and also wheat (Triticum aestivum), corn (Zea mays), blackgrass (Alopecurus myosuroides), and galium (catchweed bedstraw, Galium aparine) were planted in pots containing the same blend of loam soil and sand and treated with post emergence applications of test chemicals formulated in the same manner. Plants ranged in height from 2 to 10 cm and were in the one- to two-leaf stage for the postemergence treatment. Treated plants and untreated controls were maintained in a greenhouse for approximately 10 d, after which time all treated plants were compared to untreated controls and visually evaluated for injury. Plant response ratings, summarized in Table C, are based on a 0 to 100 scale where 0 is no effect and 100 is complete control. A dash (-)response means no test result.
# [7] = test system: barnyardgrass (Echinochloa crus-galli); assay: Test C postemergence, visual plant response rating
# Text: as §2, §3
# [8] = test system: blackgrass (Alopecurus myosuroides); assay: Test C postemergence, visual plant response rating
# Text: as §2, §3
# corn (Zea mays) = assay: Test C postemergence, visual plant response rating
# Text: as §2, §3
# [9] = test system: foxtail, giant (giant foxtail, Setaria faberi); assay: Test C postemergence, visual plant response rating
# Text: as §2, §3
# [10] = test system: galium (catchweed bedstraw, Galium aparine); assay: Test C postemergence, visual plant response rating
# Text: as §2, §3
# kochia (Bassia scoparia) [11] = assay: Test C postemergence, visual plant response rating
# Text: as §2, §3
# [12] = test system: pigweed (Amaranthus retroflexus); assay: Test C postemergence, visual plant response rating
# Text: as §2, §3
# [13] = test system: ragweed (common ragweed, Ambrosia artemisiifolia); assay: Test C postemergence, visual plant response rating
# Text: as §2, §3
# [14] = test system: wheat (Triticum aestivum); assay: Test C postemergence, visual plant response rating
# Text: as §2, §3
# [15] = test system: barnyardgrass (Echinochloa crus-galli); assay: Test D flooded paddy test, visual plant response rating; settings: 250 g ai/ha, scale 0 to 100 (0 no effect, 100 complete control), 13 to 15 d
# Summary of the method: (§4)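 Plants grown to the 2-leaf stage; pots flooded to 3 cm above soil and compound applied directly into paddy water, depth held throughout. Kept in greenhouse 13 to 15 d, then rated visually against untreated controls on a 0–100 scale (0 no effect, 100 complete control).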
# [16] = test system: duck salad (Heteranthera limosa); assay: as above; settings: 250 g ai/ha, scale 0 to 100 (0 no effect, 100 complete control), 13 to 15 d
# Summary of the method: as §4
# rice (Oryza sativa) = assay: as above; settings: 250 g ai/ha, scale 0 to 100 (0 no effect, 100 complete control), 13 to 15 d
# Summary of the method: as §4
# [17] = test system: sedge umbrella (small-flower umbrella sedge, Cyperus difformis); assay: as above; settings: 250 g ai/ha, scale 0 to 100 (0 no effect, 100 complete control), 13 to 15 d
# Summary of the method: as §4
# [18] = Test C, 31 g ai/ha, 0 is no effect, 100 is complete control
# [19] = Test C, postemergence, 125 g ai/ha
# [20] = Test C, 125 g ai/ha, 0 is no effect, 100 is complete control
Structure (SMILES),"Ryegrass, Italian plant response rating (0 to 100 scale) [1, 18]","Barnyardgrass plant response rating (0 to 100 scale) [2, 18]","Foxtail, Giant plant response rating (0 to 100 scale) [3, 18]",Kochia plant response rating (0 to 100 scale) (kochia (Bassia scoparia) [4]; [18]),"Pigweed plant response rating (0 to 100 scale) [5, 18]","Ryegrass, Italian plant response rating (0 to 100 scale) ([6]; Postemergence, 31 g ai/ha)","Ryegrass, Italian plant response rating (0 to 100 scale) [6, 19]","Barnyardgrass plant response rating (0 to 100 scale) ([7]; Postemergence, 31 g ai/ha)","Barnyardgrass plant response rating (0 to 100 scale) [7, 19]","Blackgrass plant response rating (0 to 100 scale) ([8]; Postemergence, 31 g ai/ha)","Blackgrass plant response rating (0 to 100 scale) [8, 19]","Corn plant response rating (0 to 100 scale) (corn (Zea mays); Postemergence, 31 g ai/ha)",Corn plant response rating (0 to 100 scale) (corn (Zea mays); [19]),"Foxtail, Giant plant response rating (0 to 100 scale) ([9]; Postemergence, 31 g ai/ha)","Foxtail, Giant plant response rating (0 to 100 scale) [9, 19]","Galium plant response rating (0 to 100 scale) ([10]; Postemergence, 31 g ai/ha)","Galium plant response rating (0 to 100 scale) [10, 19]","Kochia plant response rating (0 to 100 scale) (kochia (Bassia scoparia) [11]; Postemergence, 31 g ai/ha)",Kochia plant response rating (0 to 100 scale) (kochia (Bassia scoparia) [11]; [19]),"Pigweed plant response rating (0 to 100 scale) ([12]; Postemergence, 31 g ai/ha)",further results
CON=C(c1cc(Cl)cc(Cl)c1)c1c(O)c(C)nn(C)c1=O [Compound 189],90,20,20,0,70,90,100,30,50,10,30,0,10,50,80,100,100,70,90,50,"Ryegrass, Italian plant response rating (0 to 100 scale) ([1]; 125 g ai/ha): 100; Barnyardgrass plant response rating (0 to 100 scale) ([2]; 125 g ai/ha): 90; Foxtail, Giant plant response rating (0 to 100 scale) ([3]; 125 g ai/ha): 90; Kochia plant response rating (0 to 100 scale) (kochia (Bassia scoparia) [4]; 125 g ai/ha): 40; Pigweed plant response rating (0 to 100 scale) ([5]; 125 g ai/ha): 100; Pigweed plant response rating (0 to 100 scale) [12, 19]: 80; Ragweed plant response rating (0 to 100 scale) ([13]; Postemergence, 31 g ai/ha): 70; Ragweed plant response rating (0 to 100 scale) [13, 19]: 90; Wheat plant response rating (0 to 100 scale) ([14]; Postemergence, 31 g ai/ha): 10; Wheat plant response rating (0 to 100 scale) [14, 19]: 50; Plant response rating, Barnyardgrass (Flood) [15]: 0; Plant response rating, Ducksalad (Flood) [16]: 25; Plant response rating, Rice (Flood) (rice (Oryza sativa)): 15; Plant response rating, Sedge, Umbrella (Flood) [17]: 35"
CON=C(c1c(OC(C)=O)c(Cl)nn(C)c1=O)c1ccc(F)c2ccccc12 [Compound 190],0,30,60,0,20,10,20,30,20,0,20,0,0,10,30,90,100,10,20,30,"Ryegrass, Italian plant response rating (0 to 100 scale) ([1]; 125 g ai/ha): 60; Barnyardgrass plant response rating (0 to 100 scale) ([2]; 125 g ai/ha): 50; Foxtail, Giant plant response rating (0 to 100 scale) ([3]; 125 g ai/ha): 70; Kochia plant response rating (0 to 100 scale) (kochia (Bassia scoparia) [4]; 125 g ai/ha): 0; Pigweed plant response rating (0 to 100 scale) ([5]; 125 g ai/ha): 90; Pigweed plant response rating (0 to 100 scale) [12, 19]: 30; Ragweed plant response rating (0 to 100 scale) ([13]; Postemergence, 31 g ai/ha): 10; Ragweed plant response rating (0 to 100 scale) [13, 19]: 60; Wheat plant response rating (0 to 100 scale) ([14]; Postemergence, 31 g ai/ha): 0; Wheat plant response rating (0 to 100 scale) [14, 19]: 0; Plant response rating, Barnyardgrass (Flood) [15]: 0; Plant response rating, Ducksalad (Flood) [16]: 0; Plant response rating, Rice (Flood) (rice (Oryza sativa)): 0; Plant response rating, Sedge, Umbrella (Flood) [17]: 0"
C#CCO/N=C(/c1c(O)c(Cl)nn(C)c1=O)c1ccc(F)c2ccccc12 [Compound 205],20,70,80,0,80,70,100,70,90,20,80,0,40,80,100,80,90,60,70,90,"Ryegrass, Italian plant response rating (0 to 100 scale) [1, 20]: 100; Barnyardgrass plant response rating (0 to 100 scale) [2, 20]: 100; Foxtail, Giant plant response rating (0 to 100 scale) [3, 20]: 100; Kochia plant response rating (0 to 100 scale) (kochia (Bassia scoparia) [4]; [20]): 70; Pigweed plant response rating (0 to 100 scale) [5, 20]: 100; Pigweed plant response rating (0 to 100 scale) [12, 19]: 100; Ragweed plant response rating (0 to 100 scale) ([13]; Postemergence, 31 g ai/ha): 100; Ragweed plant response rating (0 to 100 scale) [13, 19]: 100; Wheat plant response rating (0 to 100 scale) ([14]; Postemergence, 31 g ai/ha): 20; Wheat plant response rating (0 to 100 scale) [14, 19]: 70; Plant response rating, Barnyardgrass (Flood) [15]: 0; Plant response rating, Ducksalad (Flood) [16]: 0; Plant response rating, Rice (Flood) (rice (Oryza sativa)): 0; Plant response rating, Sedge, Umbrella (Flood) [17]: 0"
CO/N=C(/c1c(O)c(Cl)nn(C)c1=O)c1ccc(F)c2ccccc12 [Compound 207],40,20,30,0,50,20,80,20,60,30,20,30,10,30,70,90,100,60,70,50,"Ryegrass, Italian plant response rating (0 to 100 scale) [1, 20]: 80; Barnyardgrass plant response rating (0 to 100 scale) [2, 20]: 80; Foxtail, Giant plant response rating (0 to 100 scale) [3, 20]: 90; Kochia plant response rating (0 to 100 scale) (kochia (Bassia scoparia) [4]; [20]): 60; Pigweed plant response rating (0 to 100 scale) [5, 20]: 80; Pigweed plant response rating (0 to 100 scale) [12, 19]: 80; Ragweed plant response rating (0 to 100 scale) ([13]; Postemergence, 31 g ai/ha): 30; Ragweed plant response rating (0 to 100 scale) [13, 19]: 90; Wheat plant response rating (0 to 100 scale) ([14]; Postemergence, 31 g ai/ha): 0; Wheat plant response rating (0 to 100 scale) [14, 19]: 0; Plant response rating, Barnyardgrass (Flood) [15]: 0; Plant response rating, Ducksalad (Flood) [16]: 0; Plant response rating, Rice (Flood) (rice (Oryza sativa)): 0; Plant response rating, Sedge, Umbrella (Flood) [17]: 0"
